{"source": "patent US5622948A", "about": "“Pyrrole pyridazine and pyridazinone anti-inflammatory agents” (Syntex (U.S.A.) Inc., priority 1994, dated 1997)", "key": {"[1]": {"assay": "physical stability / phase transformation of crystal forms of Compound (16)", "assay_type": "physicochemical", "conditions": "for conversion when suspended in alcohol or ethyl acetate: suspended in alcohol (Phase II: alcohol or ethyl acetate)", "text": "Phase I was obtained when Compound (16) was recrystallized from methanol, ethanol, ethanol/acetic acid, acetone, ethyl acetate, ethyl acetate/acetic acid, dichloromethane, tetrahydrofuran or tetrahydrofuran/ethyl acetate.\nPhase II was obtained when Compound (16) was recrystallized from toluene.\nPhase III was obtained by rapid precipitation of Compound (16) from acetic acid/water.\nHydrate I, a monohydrate, was also obtained by slow recrystallization of Compound (16) from acetic acid/water."}, "stomach and intestines": {"system": "stomach and intestines", "conditions": "general statement (background); cited from earlier work"}, "stomach PGE2": {"system": "stomach PGE2", "assay_type": "in vivo, rat", "conditions": "2-5 mg/kg", "description": "To examine the effect of Compound (16) on prostaglandin (PG) synthesis in inflamed tissues, Compound (16) was tested in a carrageenan-induced inflammation (air-pouch model) in rats. PGE2 levels in the air-pouch exudate were measured by enzyme immunoassay in rats treated with 0.1-30 mg/kg of Compound (16). […] […].\nTo test the effects of Compound (16) on PG synthesis in non-inflamed tissue, PGE2 levels were measured in the stomach of rats from the above experiments. […]"}, "[2]": {"system": "PGE2 levels in the air-pouch exudate", "assay": "PGE2 in exudate of carrageenan-induced inflammation (air-pouch model) in rats", "assay_type": "in vivo, rat", "conditions": "2-5 mg/kg"}, "[3]": {"system": "adjuvant-induced arthritis", "assay": "adjuvant-induced arthritis in the rat", "assay_type": "in vivo", "conditions": "second test"}, "COX II": {"molecular_target": "T1, COX II (Homo sapiens, UniProt P35354)", "T1 sequence (P35354 18-604)": "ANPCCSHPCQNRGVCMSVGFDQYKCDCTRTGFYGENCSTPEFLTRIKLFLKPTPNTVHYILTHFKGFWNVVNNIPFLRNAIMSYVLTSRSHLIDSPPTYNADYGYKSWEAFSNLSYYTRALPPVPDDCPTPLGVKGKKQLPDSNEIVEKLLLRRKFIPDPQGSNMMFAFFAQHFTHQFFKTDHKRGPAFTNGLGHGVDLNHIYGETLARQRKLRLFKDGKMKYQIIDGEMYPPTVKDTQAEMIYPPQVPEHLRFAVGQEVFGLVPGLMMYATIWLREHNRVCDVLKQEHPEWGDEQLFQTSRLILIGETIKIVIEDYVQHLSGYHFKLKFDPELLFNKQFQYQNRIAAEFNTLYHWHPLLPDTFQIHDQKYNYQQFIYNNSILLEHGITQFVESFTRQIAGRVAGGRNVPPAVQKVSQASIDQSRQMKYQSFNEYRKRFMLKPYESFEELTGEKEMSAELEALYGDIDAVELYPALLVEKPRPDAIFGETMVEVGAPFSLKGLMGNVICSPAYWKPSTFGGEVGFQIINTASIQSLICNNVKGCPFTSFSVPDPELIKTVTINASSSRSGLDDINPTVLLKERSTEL", "assay": "radiometric assay, COX II inhibition (human recombinant, baculovirus expressed, partially purified)", "assay_type": "biochemical", "set-up": "A 1.8 Kb DNA fragment containing the coding region of human COX II was generated by PCR; made in house; host or cells: Sf9 insect cells, baculovirus", "conditions": "radiometric assay, human recombinant baculovirus expressed enzyme; read-out: COX II IC50 (Table 2)", "description": "(§1) Human prostaglandin G/H synthase I and II (\"COX I\" and \"COX II\") were expressed in the baculovirus expression system and purified to high levels.\n(§2) As described above, human recombinant COX I and COX II were cloned and expressed in a baculovirus system. Partially purified COX I and COX II enzymes were used for screening compounds for their ability to inhibit COX I and COX II activity, as described below.\n(§3) Compound (16), in 2 μl DMSO, and control samples (carrier vehicles only) were mixed with COX I or COX II samples (e.g. fractions from the chromatography columns) in polypropylene tubes and preincubated with 2 mM phenol for 5 minutes and then with 1 μM hematin for an additional 5 minutes. The 150 μl reaction mixture consisted of 50 mM Tris --HCl, pH 7.9, 2 mM EDTA, 10% glycerol, 200 μM phenol, 1 μM hematin, 1-25 μl sample and 20 μM 1-[^14 C] arachidonate (80.000-100.000 cpm/tube). After 45 seconds at room temperature, the reaction was terminated by adding 200 μl of 2N HCl and 750 μl water. An aliquot (950 μl) of the reaction mixture was loaded onto a 1 ml C~ Sep-Pak (J. T. Baker, Phillipsburg, N.J.) which had been previously washed with 2-3 ml methanol and equilibrated with 5-6 ml distilled water. Oxygenated products were quantitatively eluted with 3 ml of acetonitrile, H2 O and acetic acid (50:50:0.1, v/v) and the radioactivity in the eluate determined in a scintillation counter.\n(§4) Human recombinant 10 min incubation with Compound (16)\n(§5) baculovirus 45 sec incubation with 20 μM AA\n(§6) partially purified Separation of radioactive products"}, "COX I": {"molecular_target": "COX I (Homo sapiens, UniProt P23219)", "sequence (P23219 24-599)": "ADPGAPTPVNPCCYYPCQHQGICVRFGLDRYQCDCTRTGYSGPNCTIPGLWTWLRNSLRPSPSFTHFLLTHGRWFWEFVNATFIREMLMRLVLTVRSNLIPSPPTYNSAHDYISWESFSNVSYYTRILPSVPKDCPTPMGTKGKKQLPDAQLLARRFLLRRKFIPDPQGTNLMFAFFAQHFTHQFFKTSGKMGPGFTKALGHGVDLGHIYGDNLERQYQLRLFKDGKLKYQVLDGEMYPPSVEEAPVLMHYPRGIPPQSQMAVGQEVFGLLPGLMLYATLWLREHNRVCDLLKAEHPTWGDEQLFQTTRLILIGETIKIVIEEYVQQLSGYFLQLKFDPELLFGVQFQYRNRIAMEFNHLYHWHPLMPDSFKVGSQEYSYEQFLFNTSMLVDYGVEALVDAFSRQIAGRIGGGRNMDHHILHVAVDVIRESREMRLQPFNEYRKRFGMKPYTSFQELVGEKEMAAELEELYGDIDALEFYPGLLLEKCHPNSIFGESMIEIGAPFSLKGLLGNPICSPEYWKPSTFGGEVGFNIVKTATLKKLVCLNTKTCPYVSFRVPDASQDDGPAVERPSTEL", "assay": "radiometric assay, COX I inhibition (human recombinant, baculovirus expressed, partially purified)", "assay_type": "biochemical", "set-up": "A 2 Kb fragment containing the coding region of COX I; made in house; host or cells: Sf9 insect cells, baculovirus (cDNA from Oxford Biomedical Research)", "conditions": "radiometric assay, human recombinant baculovirus expressed enzyme; read-out: COX I IC50 (Table 2)", "description": "as §1, §2, §3, §4, §5, §6"}}}
{"smiles": "Cc1cc(Cc2ccc(=O)[nH]n2)n(C)c1C(=O)c1ccc(Cl)cc1", "note": "[Phase I]", "values": [{"measurement": "phase transformation on milling and micronization", "setting": "[1]; milling and micronization", "value": "did not cause any phase transformation"}, {"measurement": "conversion when suspended in water", "setting": "[1]", "value": "converted to a monohydrate, Hydrate I"}, {"measurement": "physically stable for", "setting": "[1]; unmilled (-200 μm), 40° C./75% relative humidity", "value": "at least 4 days"}]}
{"smiles": "COc1ccc2c(c1)c(CC(=O)O)c(C)n2C(=O)c1ccc(Cl)cc1", "note": "[indomethacin, reference compound]", "values": [{"measurement": "corrosiveness to the stomach and intestines of rats", "setting": "stomach and intestines", "value": "highly corrosive to the stomach and intestines of rats"}, {"measurement": "inhibition of stomach PGE2", "setting": "stomach PGE2", "value": "> 80", "unit": "%"}, {"measurement": "inhibition of PGE2 in the exudates", "setting": "[2]", "value": "> 70", "unit": "%"}, {"measurement": "inhibition of adjuvant-induced arthritis", "setting": "[3]; 0.3 mg/kg/day", "value": 66, "unit": "%"}, {"measurement": "inhibition of adjuvant-induced arthritis", "setting": "[3]; 0.6 mg/kg/day", "value": 79, "unit": "%"}]}
{"smiles": "Cc1cc(Cc2ccc(=O)[nH]n2)n(C)c1C(=O)c1ccc(Cl)cc1", "note": "[Hydrate I]", "values": [{"measurement": "physical stability, duration", "setting": "[1]; 40° C./75% relative humidity", "value": 14, "unit": "days"}, {"measurement": "physical stability", "setting": "[1]; 40° C./ambient relative humidity, within 11-95% relative humidity", "value": "physically stable"}, {"measurement": "conversion on heating at 120° C.", "setting": "[1]; 120° C.", "value": "phase conversion to another anhydrous crystal form"}, {"measurement": "dehydration at temperatures below 100° C.", "setting": "[1]; below 100° C., ambient conditions and 23% relative humidity", "value": "produced a metastable form that converted back to Hydrate I"}, {"measurement": "conversion when suspended in alcohol or ethyl acetate", "setting": "[1]", "value": "can be converted back to Phase I"}]}
{"smiles": "Cc1cc(Cc2ccc(=O)[nH]n2)n(C)c1C(=O)c1ccc(Cl)cc1", "note": "[Phase III]", "values": [{"measurement": "conversion when suspended in alcohol or ethyl acetate", "setting": "[1]", "value": "converted to Phase I"}, {"measurement": "conversion when suspended in water", "setting": "[1]", "value": "converted to Hydrate I"}]}
{"smiles": "Cc1cc(Cc2ccc(=O)[nH]n2)n(C)c1C(=O)c1ccc(Cl)cc1", "note": "[Phase II]", "values": [{"measurement": "conversion when suspended in alcohol or ethyl acetate", "setting": "[1]", "value": "converted to Phase I"}, {"measurement": "conversion when suspended in water", "setting": "[1]", "value": "converted to another hydrate, Hydrate II"}]}
{"smiles": "CSc1cc(Cc2ccc(=O)[nH]n2)n(C)c1C(=O)c1ccc(C)cc1", "note": "[Compound 107, 6-(1-methyl-5-(4-methyl-benzoyl)-4-methylthio-1H-pyrrol-2-ylmethyl)-2H-pyridazin-3-one]", "values": [{"measurement": "IC50", "setting": "COX II", "value": 2.3, "unit": "µM"}, {"measurement": "IC50", "setting": "COX I", "value": 21, "unit": "µM"}]}
